Results from patent US10570149B2, “Tricyclic heterocylic derivatives” (MERCK PATENT GMBH, priority 2016, dated 2020).
Where two headings read alike, the source gives them in different places. One block for each compound: values may come before it.

Tests used:
ATR/ATRIP = target: T1, ATR/ATRIP (Homo sapiens, UniProt Q13535); assay: ATR/ATRIP kinase assay (TR-FRET, p53 phosphorylation); format: biochemical
T1 construct: human ATR, full length, GenBank ID: NM_001184.3; p53: Sf21 insect cells

[1] = system: phosphorylation of H2AX (gH2AX) in U2OS-TopBP1-ER cells; assay: gH2AX-TopBP1ER cellular assay; format: cell-based
Excerpt: gH2AX-TopBP1ER Cellular Assay
ATR activity is restricted to replicating cells and many of its targets can also be phosphorylated by other PIKKs. These restrictions have limited the development of selective cellular assays in the past. In order to overcome these limitations, a previously developed genetically engineered cellular system in which ATR, and only ATR, can be activated at will in every cell (Toledo et al Genes Dev. 22, 297-302 2008) was used. In this system, the addition of 4-hydroxytamoxifen (4-OHT), promotes the nuclear translocation of a fragment of TopBP1 which then activates ATR. The phosphorylation of H2AX that follows 4-OHT addition in these cells is a direct and selective readout of ATR activity, which is not influenced by the rest of PIKKs. This property has been used in a screen for compounds with ATR inhibitory capacity. U2OS-TopBP1-ER cells stably express the TopBP1 activation domain (aa 978-1286) fused to a mutated estrogen receptor ligand binding domain. Nuclear accumulation of the TopBP1-ER-LBD fusion protein is induced by the synthetic ER antagonist 4-hydroxytamoxifen (4-OHT) (and not by natural ER agonists) mediating specific ATR activation that is independent of DNA damage or cell cycle. In the assay phosphorylation of the ATR substrate H2AX (“gH2AX”) at Serin 139 is detected using an immune-cytochemical procedure and high content imaging. For the assay U2OS-TopBP1-ER cells are plated in culture medium (DMEM high Glucose (no phenol red), 2 mM Glutamax, 1 mM Pyruvate, 10% FCS into Greiner 384 well plates, black, μclear #781090 (4000 cells/well/30 μl) and incubated for at least 20 hours at 37° C., 10% CO2 and 90% rH. Diluted test compounds (1 nM-30 μM final) and 4-OHT (1 μM final) are added simultaneously and cells are incubated for 2 h at 37° C. After fixation with 4% formaldehyde and permeabilisation with 0.2% Triton X-100 a complete immunocytochemical procedure is performed using a specific anti-gH2AX-antibody (Millipore 05-636, clone JBW301) and fluorescently labelled secondary antibody (Alexa Fluor® 488 goat anti-mouse F(ab′)2 fragment, Invitrogen A11017) and parallel nuclear staining for cell counting. The nuclear localised gH2AX signal is detected on an ImageXpress Ultra confocal high content reader and reported as % positive cells (nuclei).

[2] = system: phosphorylation of Chk1 (Ser 345) in HT29 colon adenocarcinoma cells; assay: pCHK1 cellular assay; format: cell-based; details: Homo sapiens
Excerpt: Chk1 kinase acts downstream of ATR and has a key role in DNA damage checkpoint control. Activation of Chk1 involves phosphorylation of Ser317 and Ser345 (regarded as the preferential target for phosphorylation/activation by ATR) and occurs in response to blocked DNA replication and certain forms of genotoxic stress. Phosphorylation at Ser 345 serves to localize Chk1 to the nucleus following checkpoint activation.
This assay measures a decrease in phosphorylation of Chk1 (Ser 345) in HT29 colon adenocarcinoma cells following treatment with compound and hydroxyurea (which promotes fork stalling because of dNTP depletion) and using an immunocytochemical procedure and high content imaging.
For the assay HT29 cells are plated in culture medium (DMEM high Glucose (no phenol red), 2 mM Glutamax, 1 mM Pyruvate, 10% FCS into Greiner 384 well plates, black, μclear #781090 (2500 cells/well/30 μl) and incubated for at least 20 hours at 37° C., 10% CO2 and 90% rH. Diluted test compounds (1 nM-30 μM final) and hydroxyurea (3 mM final) are added simultaneously and cells are incubated for 4 h at 37° C. After fixation/prmeabilisation with 100% MeOH (−20° C. cold) and permeabilisation with 0.2% Triton X-100 a complete immunocytochemical procedure is performed using a specific anti-pChk1 antibody (Cell Signaling, #2348BF) and fluorescently labelled secondary antibody (Alexa Fluor® 488 goat anti-rabbit F(ab′)2 fragment, Invitrogen A11070) and parallel nuclear staining for cell counting.
The nuclear localised pChk1 signal is detected on an ImageXpress Ultra confocal high content reader and reported as % positive cells (nuclei).

[3] = Table 1, class symbols, read-out: ATR-ATRIP IC50
[4] = HT-29, Table 1, class symbols, hydroxyurea

T1 sequence (Q13535 whole entry): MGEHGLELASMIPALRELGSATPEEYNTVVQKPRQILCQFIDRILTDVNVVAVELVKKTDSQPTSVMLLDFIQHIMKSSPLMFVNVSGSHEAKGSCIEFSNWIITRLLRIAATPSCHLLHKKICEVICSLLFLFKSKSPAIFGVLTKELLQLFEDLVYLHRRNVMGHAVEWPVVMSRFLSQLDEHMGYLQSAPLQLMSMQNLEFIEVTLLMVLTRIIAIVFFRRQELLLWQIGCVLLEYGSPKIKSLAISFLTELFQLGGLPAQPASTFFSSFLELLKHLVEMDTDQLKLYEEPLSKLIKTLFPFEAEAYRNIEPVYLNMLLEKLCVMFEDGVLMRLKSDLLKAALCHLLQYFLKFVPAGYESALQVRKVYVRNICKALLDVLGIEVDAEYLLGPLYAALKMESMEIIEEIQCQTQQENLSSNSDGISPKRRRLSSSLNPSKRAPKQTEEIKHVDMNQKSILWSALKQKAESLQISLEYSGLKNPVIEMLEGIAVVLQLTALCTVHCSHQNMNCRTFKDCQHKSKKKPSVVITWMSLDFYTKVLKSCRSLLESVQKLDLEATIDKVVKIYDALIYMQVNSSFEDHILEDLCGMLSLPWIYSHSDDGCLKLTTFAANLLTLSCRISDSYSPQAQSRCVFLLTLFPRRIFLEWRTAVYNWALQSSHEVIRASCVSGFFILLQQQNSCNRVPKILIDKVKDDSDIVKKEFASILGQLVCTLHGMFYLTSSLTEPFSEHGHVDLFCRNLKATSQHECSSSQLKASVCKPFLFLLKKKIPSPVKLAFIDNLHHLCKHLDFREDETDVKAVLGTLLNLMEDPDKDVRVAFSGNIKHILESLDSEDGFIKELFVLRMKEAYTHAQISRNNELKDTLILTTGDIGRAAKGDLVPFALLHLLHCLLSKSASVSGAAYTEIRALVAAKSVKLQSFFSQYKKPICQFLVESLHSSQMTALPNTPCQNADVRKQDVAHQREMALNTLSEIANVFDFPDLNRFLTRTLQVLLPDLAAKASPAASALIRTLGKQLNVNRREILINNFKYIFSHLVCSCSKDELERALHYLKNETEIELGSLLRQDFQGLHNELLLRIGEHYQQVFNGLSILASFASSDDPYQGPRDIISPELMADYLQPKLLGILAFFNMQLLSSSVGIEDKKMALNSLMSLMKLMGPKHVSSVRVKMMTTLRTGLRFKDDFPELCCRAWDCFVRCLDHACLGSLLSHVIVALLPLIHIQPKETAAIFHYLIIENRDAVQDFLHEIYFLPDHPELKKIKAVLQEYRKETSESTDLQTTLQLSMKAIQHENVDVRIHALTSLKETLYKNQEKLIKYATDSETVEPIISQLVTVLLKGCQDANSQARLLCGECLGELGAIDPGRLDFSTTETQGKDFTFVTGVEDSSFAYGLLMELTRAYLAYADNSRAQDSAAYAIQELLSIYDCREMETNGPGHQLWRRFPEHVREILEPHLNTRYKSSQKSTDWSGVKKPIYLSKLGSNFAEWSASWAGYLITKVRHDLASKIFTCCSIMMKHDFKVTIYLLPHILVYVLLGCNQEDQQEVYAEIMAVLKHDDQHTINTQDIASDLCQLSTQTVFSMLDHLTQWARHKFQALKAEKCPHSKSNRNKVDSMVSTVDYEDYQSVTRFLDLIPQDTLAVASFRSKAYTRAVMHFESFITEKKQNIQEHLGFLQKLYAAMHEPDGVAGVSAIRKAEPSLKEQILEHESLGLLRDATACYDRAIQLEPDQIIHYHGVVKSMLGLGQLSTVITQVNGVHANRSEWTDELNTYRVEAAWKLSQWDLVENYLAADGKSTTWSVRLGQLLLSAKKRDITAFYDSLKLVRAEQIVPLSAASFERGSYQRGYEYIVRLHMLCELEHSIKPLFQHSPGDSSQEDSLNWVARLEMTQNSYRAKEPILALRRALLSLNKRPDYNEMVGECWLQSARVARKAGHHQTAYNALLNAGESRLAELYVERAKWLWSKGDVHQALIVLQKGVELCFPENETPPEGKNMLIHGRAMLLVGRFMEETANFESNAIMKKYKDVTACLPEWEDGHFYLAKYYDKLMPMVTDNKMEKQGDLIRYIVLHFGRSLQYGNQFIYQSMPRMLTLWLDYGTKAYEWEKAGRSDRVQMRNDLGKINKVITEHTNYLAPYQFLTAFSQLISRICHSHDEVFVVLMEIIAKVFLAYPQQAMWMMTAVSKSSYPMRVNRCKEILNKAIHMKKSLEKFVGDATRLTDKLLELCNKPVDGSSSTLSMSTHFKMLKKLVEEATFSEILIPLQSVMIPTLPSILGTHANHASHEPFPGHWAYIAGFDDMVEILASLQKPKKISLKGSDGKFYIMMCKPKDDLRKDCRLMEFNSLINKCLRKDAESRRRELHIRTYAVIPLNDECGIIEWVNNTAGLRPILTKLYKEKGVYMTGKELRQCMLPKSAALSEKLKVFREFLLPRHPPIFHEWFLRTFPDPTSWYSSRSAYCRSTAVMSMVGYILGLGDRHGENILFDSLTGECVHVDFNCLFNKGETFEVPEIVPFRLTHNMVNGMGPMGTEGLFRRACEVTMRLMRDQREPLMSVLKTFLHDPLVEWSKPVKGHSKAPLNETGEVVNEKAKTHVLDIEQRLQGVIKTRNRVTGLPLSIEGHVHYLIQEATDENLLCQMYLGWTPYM
T1 sequence (Q8WXE1 whole entry partner): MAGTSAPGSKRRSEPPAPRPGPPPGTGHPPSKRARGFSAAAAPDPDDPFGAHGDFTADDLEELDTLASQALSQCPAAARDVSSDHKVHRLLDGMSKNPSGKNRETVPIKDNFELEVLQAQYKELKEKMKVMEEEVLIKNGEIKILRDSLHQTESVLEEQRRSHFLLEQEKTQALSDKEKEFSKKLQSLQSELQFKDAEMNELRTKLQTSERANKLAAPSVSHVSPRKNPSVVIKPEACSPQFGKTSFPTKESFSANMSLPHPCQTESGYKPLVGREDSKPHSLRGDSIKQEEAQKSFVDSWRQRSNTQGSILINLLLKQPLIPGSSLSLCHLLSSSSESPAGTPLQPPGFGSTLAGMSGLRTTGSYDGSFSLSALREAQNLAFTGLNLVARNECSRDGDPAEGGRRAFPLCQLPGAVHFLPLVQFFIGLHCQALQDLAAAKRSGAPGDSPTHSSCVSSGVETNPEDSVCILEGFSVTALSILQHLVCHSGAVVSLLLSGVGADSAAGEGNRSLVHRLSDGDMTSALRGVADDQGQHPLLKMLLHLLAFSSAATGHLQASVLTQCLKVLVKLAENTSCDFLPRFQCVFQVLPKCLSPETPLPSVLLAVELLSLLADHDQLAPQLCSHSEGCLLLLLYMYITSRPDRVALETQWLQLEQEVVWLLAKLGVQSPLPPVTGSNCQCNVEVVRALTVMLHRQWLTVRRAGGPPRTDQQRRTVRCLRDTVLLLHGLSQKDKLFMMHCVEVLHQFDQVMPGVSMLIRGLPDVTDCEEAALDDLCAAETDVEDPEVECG

Structure (SMILES): CNc1nc2ccccc2n1-c1nc2c(c(C3(S(C)(=O)=O)CC3)n1)OC[C@@H]1COC[C@@H](C)N21 [A26, {1-[(4bR,8S)-1-(1-Methanesulfonyl-cyclopropyl)-5-methyl-5,6,8a,9-tetrahydro-8H-7,10-dioxa-2,4,4b-triaza-phenanthren-3-yl]-1H-benzimidazol-2-yl}-methylamine]
- IC50 (ATR/ATRIP; [3]): < 0.001 µM
- IC50 ([1]; Table 1, class symbols, 4-OHT): 0.01 to 0.1 µM
- IC50 ([1]; Table 2, 4-OHT): 0.037 µM
- IC50 [2, 4]: 0.01 to 0.1 µM
- IC50 ([2]; HT-29, Table 2, hydroxyurea): 0.025 µM

Structure (SMILES): C[C@@H]1COC[C@H]2COc3c(nc(-n4c(N)nc5ccccc54)nc3C(C)(C)S(C)(=O)=O)N21 [A11, 1-[(5R,8aS)-1-(1-Methanesulfonyl-1-methyl-ethyl)-5-methyl-5,6,8a,9-tetrahydro-8H-7,10-dioxa-2,4,4b-triaza-phenanthren-3-yl]-1H-benzimidazol-2-ylamine]
- IC50 (ATR/ATRIP; [3]): < 0.001 µM
- IC50 ([1]; Table 1, class symbols, 4-OHT): 0.1 to 1 µM
- IC50 [2, 4]: 0.01 to 0.1 µM

Structure (SMILES): CNc1nc2ccccc2n1-c1nc2c(c(C(C)(C)S(C)(=O)=O)n1)OC[C@@H]1COC[C@@H](C)N21 [A15, {1-[(5R,8aS)-1-(1-Methanesulfonyl-1-methyl-ethyl)-5-methyl-5,6,8a,9-tetrahydro-8H-7,10-dioxa-2,4,4b-triaza-phenanthren-3-yl]-1H-benzimidazol-2-yl}-methyl-amine]
- IC50 (ATR/ATRIP; [3]): < 0.001 µM
- IC50 ([1]; Table 1, class symbols, 4-OHT): < 0.01 µM
- IC50 ([1]; Table 2, 4-OHT): 0.0074 µM
- IC50 [2, 4]: < 0.01 µM
- IC50 ([2]; HT-29, Table 2, hydroxyurea): 0.0029 µM

Structure (SMILES): Cc1nc2ccccc2n1-c1nc2c(c(C(C)(C)S(C)(=O)=O)n1)OC[C@@H]1COC[C@@H](C)N21 [A24, (5R,8aS)-1-(1-Methanesulfonyl-1-methyl-ethyl)-5-methyl-3-(2-methylbenzimidazol-1-yl)-5,6,8a,9-tetrahydro-8H-7,10-dioxa-2,4,4b-triaza-phenanthrene]
- IC50 (ATR/ATRIP; [3]): < 0.001 µM
- IC50 ([1]; Table 1, class symbols, 4-OHT): 0.1 to 1 µM
- IC50 [2, 4]: 0.01 to 0.1 µM

Structure (SMILES): C[C@@H]1COC[C@H]2COc3c(nc(-c4c(F)cnc5[nH]ccc45)nc3C(C)(C)O)N21 [A7, 2-[(5R,8aS)-3-(5-Fluoro-1H-pyrrolo[2,3-b]pyridin-4-yl)-5-methyl-5,6,8a,9-tetrahydro-8H-7,10-dioxa-2,4,4b-triaza-phenanthren-1-yl]-propan-2-ol]
- IC50 (ATR/ATRIP; [3]): 0.001 to 0.01 µM
- IC50 ([1]; Table 1, class symbols, 4-OHT): 0.1 to 1 µM
- IC50 [2, 4]: 0.1 to 1 µM

Structure (SMILES): CNc1ncc2[nH]ccc2c1-c1nc2c(c(C(C)(C)S(C)(=O)=O)n1)OC[C@@H]1COC[C@@H](C)N21 [A27, {4-[(5R,8aS)-1-(1-Methanesulfonyl-1-methyl-ethyl)-5-methyl-5,6,8a,9-tetrahydro-8H-7,10-dioxa-2,4,4b-triaza-phenanthren-3-yl]-1H-pyrrolo[2,3-c]pyridin-5-yl}-methyl-amine]
- IC50 (ATR/ATRIP; [3]): < 0.001 µM
- IC50 [2, 4]: < 0.01 µM

Structure (SMILES): C[C@@H]1COC[C@H]2COc3c(nc(-c4ccc(C5(CO)CN5)cc4)nc3C(C)(C)S(C)(=O)=O)N21 (stereo partly drawn) [A61, (2-{4-[(5R,8aS)-1-(1-methanesulfonyl-1-methyl-ethyl)-5-methyl-5,6,8a,9-tetrahydro-8H-7,10-dioxa-2,4,4b-triaza-phenanthren-3-yl]-phenyl}-aziridin-2-yl)-methanol]
- IC50 (ATR/ATRIP): 0.5 to 30 µM
- IC50 [2, 4]: 1 to 30 µM

Structure (SMILES): CC(=O)Nc1nc2ccccc2n1-c1nc2c(c(C(C)(C)S(C)(=O)=O)n1)OC[C@@H]1COC[C@@H](C)N21 [A34, N-{1-[(10S,14R)-6-(2-Methanesulfonylpropan-2-yl)-14-methyl-8,12-dioxa-1,3,5-triazatricyclo[8.4.0.0^2,7]tetradeca-2,4,6-trien-4-yl]-1H-1,3-benzodiazol-2-yl}acetamide]
- IC50 (ATR/ATRIP; [3]): < 0.001 µM
- IC50 [2, 4]: 0.01 to 0.1 µM

Structure (SMILES): C[C@@H]1COC[C@H]2COc3c(nc(-c4cccc(C5(CO)CN5)c4)nc3C(C)(C)S(C)(=O)=O)N21 (stereo partly drawn) [A63, (2-{3-[(5R,8aS)-1-(1-methanesulfonyl-1-methyl-ethyl)-5-methyl-5,6,8a,9-tetrahydro-8H-7,10-dioxa-2,4,4b-triaza-phenanthren-3-yl]-phenyl}-aziridin-2-yl)-methanol]
- IC50 (ATR/ATRIP): 0.5 to 30 µM
- IC50 [2, 4]: 1 to 30 µM

Continued, values first:

- IC50 (ATR/ATRIP; [3]): < 0.001 µM
- IC50 [2, 4]: 0.01 to 0.1 µM
Structure (SMILES): C[C@@H]1COC[C@H]2COc3c(nc(-c4cncc5[nH]ccc45)nc3C(C)(C)S(C)(=O)=O)N21 [A39, (5R,8aS)-1-(1-methanesulfonyl-1-methyl-ethyl)-5-methyl-3-(1H-pyrrolo[2,3-c]pyridin-4-yl)-5,6,8a,9-tetrahydro-8H-7,10-dioxa-2,4,4b-triaza-phenanthrene]

- IC50 (ATR/ATRIP; [3]): 0.001 to 0.01 µM
- IC50 [2, 4]: 0.1 to 1 µM
Structure (SMILES): CC(C)Nc1cnc2[nH]ccc2c1-c1nc2c(c(C(C)(C)S(C)(=O)=O)n1)OC[C@@H]1COC[C@@H](C)N21 [A81, isopropyl-{4-[(S)-1-(1-methanesulfonyl-1-methyl-ethyl)-5-(R)methyl-5,6,8a,9-tetrahydro-8H-7,10-dioxa-2,4,4b-triaza-phenanthren-3-yl]-1H-pyrrolo[2,3-b]pyridin-5-yl}-amine]

- IC50 (ATR/ATRIP; [3]): 0.01 to 0.1 µM
- IC50 [2, 4]: 0.1 to 1 µM
Structure (SMILES): C[C@@H]1COC[C@H]2COc3c(nc(-c4ccc5nc(N)ncc5c4)nc3C(C)(C)S(C)(=O)=O)N21 [A78, 6-[(5R,8aS)-1-(1-methanesulfonyl-1-methyl-ethyl)-5-methyl-5,6,8a,9-tetrahydro-8H-7,10-dioxa-2,4,4b-triaza-phenanthren-3-yl]-quinazolin-2-ylamine]

- IC50 (ATR/ATRIP; [3]): < 0.001 µM
- IC50 [2, 4]: 0.1 to 1 µM
Structure (SMILES): C[C@@H]1COC[C@H]2COc3c(nc(-c4ccc(-c5ncc[nH]5)cc4)nc3C(C)(C)S(C)(=O)=O)N21 [A44, (10S,14R)-4-[4-(1H-imidazol-2-yl)phenyl]-6-(2-methanesulfonylpropan-2-yl)-14-methyl-8,12-dioxa-1,3,5-triazatricyclo[8.4.0.0^2,7]tetradeca-2,4,6-triene]

- IC50 (ATR/ATRIP; [3]): < 0.001 µM
- IC50 [2, 4]: 0.01 to 0.1 µM
Structure (SMILES): C[C@@H]1COC[C@H]2COc3c(nc(Nc4ccn[nH]4)nc3C(C)(C)S(C)(=O)=O)N21 [A73, [(5R,8aS)-1-(1-methanesulfonyl-1-methyl-ethyl)-5-methyl-5,6,8a,9-tetrahydro-8H-7,10-dioxa-2,4,4b-triaza-phenanthren-3-yl]-(2H-pyrazol-3-yl)-amine]

- IC50 (ATR/ATRIP; [3]): 0.001 to 0.01 µM
- IC50 [2, 4]: 0.01 to 0.1 µM
Structure (SMILES): C[C@@H]1COC[C@H]2COc3c(nc(-n4c(NC5COC5)nc5ccccc54)nc3C(C)(C)S(C)(=O)=O)N21 [A93, {1-[(5R,8aS)-1-(1-methanesulfonyl-1-methyl-ethyl)-5-methyl-5,6,8a,9-tetrahydro-8H-7,10-dioxa-2,4,4b-triaza-phenanthren-3-yl]-1H-benzoimidazol-2-yl}-oxetan-3-yl-amine]

- IC50 (ATR/ATRIP; [3]): 0.01 to 0.1 µM
- IC50 [2, 4]: 1 to 30 µM
Structure (SMILES): C[C@@H]1COC[C@H]2COc3c(nc(-c4cc5cc(F)ncc5[nH]4)nc3C(C)(C)S(C)(=O)=O)N21 [A67, (5R,8aS)-3-(5-fluoro-1H-pyrrolo[2,3-c]pyridin-2-yl)-1-(1-methanesulfonyl-1-methyl-ethyl)-5-methyl-5,6,8a,9-tetrahydro-8H-7,10-dioxa-2,4,4b-triaza-phenanthrene]

- IC50 (ATR/ATRIP; [3]): 0.001 to 0.01 µM
- IC50 [2, 4]: 0.01 to 0.1 µM
Structure (SMILES): [2H]C([2H])([2H])Nc1cnc2[nH]ccc2c1-c1nc2c(c(C(C)(C)S(C)(=O)=O)n1)OC[C@@H]1COC[C@@H](C)N21 [A42, 4-[(10S,14R)-6-(2-methanesulfonylpropan-2-yl)-14-methyl-8,12-dioxa-1,3,5-triazatricyclo[8.4.0.0^2,7]tetradeca-2,4,6-trien-4-yl]-N-(^2H3)methyl-1H-pyrrolo[2,3-b]pyridin-5-amine]
